For one series, the system named is guard cell. To be noted: cited from earlier work. The source says: A PNP_CAT interaction in plant responses to infecting pathogens is not surprising. CATs commonly function to down-regulate ROS during ABA-induced stomatal closure, and ABA-induced stomatal closure can be inhibited by removal of H2O2 via CAT2[73],[74]. […] Therefore, it is tempting to speculate that AtPNP-A modulates the effect of ABA on stomatal aperture through the interaction w ...

Another series has as its system cGMP. Particulars: cited from earlier work. The source says:
Similarly, identification of novel receptors targeted by an increasing number of peptidic plant hormones discovered in the last few decades[8],[9] is anticipated. One of those, the plant natriuretic peptides (PNPs), are a group of systemically mobile signals[10] that have a role in the maintenance of salt and water balance[11],[12]. An A. thaliana PNP, termed AtPNP-A (At2g18660; Q9ZV52), has been implicated in several physiological processes ranging from the regulation of stomatal aperture, osmoticum-dependent volume changes[13],[14] and modulation of developmental stage- and tissue-specif ... || A PNP_CAT interaction in plant responses to infecting pathogens is not surprising. CATs commonly function to down-regulate ROS during ABA-induced stomatal closure, and ABA-induced stomatal closure can be inhibited by removal of H2O2 via CAT2[73],[74]. […] Therefore, it is tempting to speculate that AtPNP-A modulates the effect of ABA on stomatal aperture through the interaction w ...

Another series concerns plant pathogen. Particulars: exogenous H2O2; cited from earlier work.
The test system of another series is CAT2 transcript. To be noted: exogenous application; cited from earlier work. From the text:
(§1) It is also conceivable that modulation of CAT2 activity by AtPNP-A may not only have implications for plant biotic stress tolerance but may also result in changes in responses to abiotic stress. Activity of CAT2 is required for decomposition of photorespiration-derived H2O2 preventing redox perturbation under ambient growth conditions[59] while CAT2 deficiency causes a defective photorespiration phenotype including suppressed growth[58],[59] and accumulation of H2O2 in leaves. During senescence suppression of CAT2 function, mediated by G-BOX BINDING FACTOR1 (GBF1)[76], decreases CAT2 activ ...

For series [1], the system named is AtPNP-A-deficient seedlings. To be noted: cited from earlier work.
From the text: as §1

Series [2] deals with T1, bovine liver CAT (C-40; Sigma) (bovine, UniProt P00432 1-527).
T1 construct: catalase from bovine liver; also called bovine CAT; bovine liver catalase; source: bought: Sigma (C-40), bovine liver
T1 sequence (looked up): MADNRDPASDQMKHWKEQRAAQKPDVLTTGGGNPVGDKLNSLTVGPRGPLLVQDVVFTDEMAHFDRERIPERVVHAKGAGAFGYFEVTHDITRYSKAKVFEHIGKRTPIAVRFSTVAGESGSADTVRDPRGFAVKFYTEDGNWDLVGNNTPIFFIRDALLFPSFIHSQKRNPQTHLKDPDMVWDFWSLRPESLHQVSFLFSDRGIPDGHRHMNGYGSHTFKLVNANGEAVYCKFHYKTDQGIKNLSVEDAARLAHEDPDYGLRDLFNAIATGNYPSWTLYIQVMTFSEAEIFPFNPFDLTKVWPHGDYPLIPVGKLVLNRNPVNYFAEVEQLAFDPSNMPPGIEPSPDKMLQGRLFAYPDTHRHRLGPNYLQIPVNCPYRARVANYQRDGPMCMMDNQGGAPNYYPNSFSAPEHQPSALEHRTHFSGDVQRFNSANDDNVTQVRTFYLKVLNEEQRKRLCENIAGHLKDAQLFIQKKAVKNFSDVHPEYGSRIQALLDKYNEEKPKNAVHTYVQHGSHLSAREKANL
As to the kind of experiment: SPR; Biacore T100, 20 °C, flow 100 μL/min; bovine liver CAT amine-coupled to Series S CM5 chip, pAtPNP-A at 3.78 μM and consecutive twofold dilutions (11 injections); regeneration with glycine pH 2.0; kinetic analysis. To be noted: both partners purified. On the technique in general: In SPR one partner is held on a chip, and binding of the other changes the refractive index at the surface.

For series [3], the target named is T2, recombinant catalase 2 (rCAT2), N-terminally 6xHis-tagged (A. thaliana, UniProt P25819 1-492).
T2 construct: catalase 2 (CAT2), A. thaliana; held on the NTA chip by its His tag; also called CAT2 recombinant protein; His-tagged rCAT2; source: E. coli BL21 (DE3) One Shot, purified (Ni-NTA beads, HisTrap HP column); not shown: 6xHis, N-terminal, kept
T2 sequence (looked up): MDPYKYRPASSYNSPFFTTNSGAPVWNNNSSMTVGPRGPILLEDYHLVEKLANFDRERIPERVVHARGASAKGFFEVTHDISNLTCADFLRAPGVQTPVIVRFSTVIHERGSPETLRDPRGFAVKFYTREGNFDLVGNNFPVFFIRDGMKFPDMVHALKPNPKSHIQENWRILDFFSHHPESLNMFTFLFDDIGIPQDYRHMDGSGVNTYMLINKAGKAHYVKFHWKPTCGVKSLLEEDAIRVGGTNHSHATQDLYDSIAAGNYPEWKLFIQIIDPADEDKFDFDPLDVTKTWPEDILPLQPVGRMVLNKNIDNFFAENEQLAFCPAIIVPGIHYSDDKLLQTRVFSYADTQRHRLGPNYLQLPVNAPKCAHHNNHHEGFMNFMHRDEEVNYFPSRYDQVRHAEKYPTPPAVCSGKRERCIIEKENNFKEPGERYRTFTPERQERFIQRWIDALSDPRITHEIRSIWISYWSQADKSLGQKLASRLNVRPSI
As to the kind of experiment: SPR; Biacore T100, 20 °C; His-tagged rCAT2 immobilised on the NTA sensor chip (app. 4,500 RU), peptides injected at the same concentration; unmodified reference surface. Particulars: both partners purified.

Positions of bridges follow the written chain, without caps; N, C: chain ends. No end group written: not given here.

As for `CC1=CC(=O)CC(C)(C)[C@@]1(O)/C=C/C(C)=C\C(=O)O` [ABA, abscisic acid, reference compound], in the series on guard cell, the “Effect of ABA on AtPNP-A-dependent guard cell volume increases” value was “no effect”. The “Effect of ABA on AtPNP-A-dependent cGMP increases” value in the series with cGMP is reported as “no effect”.
On to `OO` [H2O2, hydrogen peroxide], for which, in the series with plant pathogen, the Plant pathogen resistance result is listed as “enhances plant pathogen resistance”. Further, the CAT2 transcript entry in the series on CAT2 transcript was “Increases in CAT2 transcript”.
Take `C[n+]1ccc(-c2cc[n+](C)cc2)cc1` [methyl viologen]: the “Chlorosis in AtPNP-A-deficient seedlings” value in series [1] was “extensive chlorosis”. In addition, in the series with CAT2 transcript, the CAT2 transcript result was “Increases in CAT2 transcript”.

B1: pAtPNP-A, synthetic peptide with the active region of AtPNP-A, as used in SPR, ITC and the catalase activity assay (peptide, UniProt Q9ZV52 33-66, looked up)
peptide: YDPPYTRSACYGTQRETLVVGVKNNLWQNGRACG
modifications: disulfide 10-33 (inferred); not fully specified
notes: AtPNP-A (plant natriuretic peptide A), A. thaliana, active region, amino acids 33-66; peptides were made with or without a C-terminal biotin tag; also called biologically active fragment of AtPNP-A; source: synthetic peptide (GenScript, purity > 95%)
On to B1, for which the Kd (in general, a measure of binding affinity in units of concentration) in series [2] is 86 nM. In addition, in series [3], the binding result is given as “binds”.

The record behind these values is paper PMC7665192, “A natriuretic peptide from Arabidopsis thaliana (AtPNP-A) can modulate catalase 2 activity” (Scientific Reports, 2020).
